Results on nine compounds are retold here after ChEMBL document CHEMBL1641486, “Synthesis of 3'-azido-3'-deoxythymidine (AZT)--Cinchona alkaloid conjugates via click chemistry: Toward novel fluorescent markers and cytostatic agents” (2011).

The subject of this test is KB. Kind of test: Cytotoxicity against human KB cells assessed as inhibition of protein biosynthesis. The class given is functional. The settings on record: read-out: ED50 (the source's name).

≈ marks a conversion by molar mass, not a printed value.

On to `COc1ccc2nccc([C@@H](O)[C@@H]3CC4CCN3CC4c3cn([C@H]4C[C@H](n5cc(C)c(=O)[nH]c5=O)O[C@@H]4CO)nn3)c2c1` (some centres undefined), for which the EC50 turned out to be 1.3 µg/mL (≈ 2.2 µM). In the case of `COc1ccc2nccc([C@H](O)[C@H]3CC4CCN3CC4c3cn([C@H]4C[C@H](n5cc(C)c(=O)[nH]c5=O)O[C@@H]4CO)nn3)c2c1` (some centres undefined) it was 12 µg/mL (≈ 20.4 µM); in that of `Cc1cn([C@H]2C[C@H](n3cc(C4CN5CCC4C[C@H]5[C@H](O)c4ccnc5ccccc45)nn3)[C@@H](CO)O2)c(=O)[nH]c1=O` (some centres undefined), 11.6 µg/mL (≈ 20.7 µM); in that of `Cc1cn([C@H]2C[C@H](n3cc(C4CN5CCC4C[C@@H]5[C@@H](O)c4ccnc5ccccc45)nn3)[C@@H](CO)O2)c(=O)[nH]c1=O` (some centres undefined), 21 µg/mL (≈ 37.5 µM).

For `C=CC1CN2CCC1C[C@H]2[C@H](OCc1cn([C@H]2C[C@H](n3cc(C)c(=O)[nH]c3=O)O[C@@H]2CO)nn1)c1ccnc2ccc(OC)cc12` (some centres undefined), the EC50 was 2.1 µg/mL (≈ 3.33 µM). The result for `C=CC1CN2CCC1C[C@@H]2[C@@H](OCc1cn([C@H]2C[C@H](n3cc(C)c(=O)[nH]c3=O)O[C@@H]2CO)nn1)c1ccnc2ccc(OC)cc12` (some centres undefined) reads 3.9 µg/mL (≈ 6.19 µM); that for `C=CC1CN2CCC1C[C@H]2[C@H](OCc1cn([C@H]2C[C@H](n3cc(C)c(=O)[nH]c3=O)O[C@@H]2CO)nn1)c1ccnc2ccccc12` (some centres undefined), more than 100 µg/mL.

Turning to `C=CC1CN2CCC1C[C@@H]2[C@@H](OCc1cn([C@H]2C[C@H](n3cc(C)c(=O)[nH]c3=O)O[C@@H]2CO)nn1)c1ccnc2ccccc12` (some centres undefined), the EC50 is more than 100 µg/mL. The result for `Nc1ccn([C@@H]2O[C@H](CO)[C@@H](O)[C@@H]2O)c(=O)n1` [CYTARABINE] reads 0.99 µg/mL (≈ 4.07 µM).
